Assay results as given in patent US9987296B2, “Compositions including anthocyanin or anthocyanidin for the prevention or treatment of Articular cartilage-associated conditions” (priority 2008, dated 2018).
“Also recorded” adds a separate entry of the source.

Assays:
[1] = tested on: Human articular chondrocytes; experiment: Cell viability (calcein AM / ethidium homodimer staining); type: cell-based; details: 96 hours
From the text: Chondrocytes were isolated from non-arthritic regions of adult human articular cartilage (N=3 donors) and expanded in tissue culture flasks in DMEM supplemented with 10% calf serum.
At higher concentrations, the color of the anthocyanin interfered with the spectrophotometer reading; therefore, cell viability was additionally measured with calcein staining as follows: Live and dead cells were simultaneously viewed in situ with a confocal microscope (LSM 510; Zeiss, Wetzlar, Germany), using a fluorescent double stain. Calcein AM (1 uM; Invitrogen, Carlsbad, Calif.), a fluorescein derivative that is metabolized by nonspecific esterase present in viable cells, was used to stain live cells. The use of 8 uM ethidium homodimer (Invitrogen), a nucleic acid stain that is excluded by intact cell membranes, enabled visualization of the nuclei of dead cells. After 96-hour exposure to the appropriate concentration of anthocyanins, chondrocytes were cultured in DMEM supplemented with Calcein AM and ethidium homodimer for 45 minutes. Live and dead cells were counted using an automated image analysis script written in Matlab (MathWorks, Natick, Mass.) to measure percentage cell viability.

[2] = in vitro; cited from earlier work
[3] = tested on: bovine cartilage explants; experiment: Mucopolysaccharide production (35 Sulfur uptake) in bovine cartilage explants; type: cell-based
Protocol: Bovine cartilage explants were placed in culture including 10% FCS and Vitamin C. IL-1 was added to a test population and IL-1 was not added to control. Explants were cultured for 24 hours. Kuromanin chloride was then added to each culture. Mucopolysaccharides were measured using radioactive 35 Sulfur uptake.

Question: For `Oc1cc(O)c2cc(O)c(-c3ccc(O)c(O)c3)[o+]c2c1` [Cyanidin chloride], which cell viability ([1]; 500 uM) is on record?
Answer: The cell viability was “completely reducing cell viability”.

Question: And the “toxicity relative to the other compounds tested” value ([1]; concentrations above 100 uM up to 500 uM)?
Answer: Its value is “most toxic”.

Question: Which results are given for `OC[C@H]1O[C@@H](Oc2cc3c(O)cc(O)cc3[o+]c2-c2ccc(O)c(O)c2)[C@H](O)[C@@H](O)[C@@H]1O.[Cl-]` [Kuromanin chloride]?
Answer: oxygen radical absorbing capacity compared to Trolox (Vitamin E) [2]: 3.5 times; production of mucopolysaccharides ([3]; bovine cartilage preincubated with IL-1): increased production of mucopolysaccharides; also recorded: increase of mucopolysaccharide; production of mucopolysaccharides ([3]; control bovine cartilage explants, no IL-1, listed as kuromanin): increase of mucopolysaccharide; production of mucopolysaccharides ([3]; control bovine cartilage explants, no IL-1, listed as kuromanin chloride): increased production of mucopolysaccharides
